Data published in patent US11180504B2 (ORCHID PHARMA LTD., priority 2016, dated 2021).
Converted amounts (≈) assume the structure as drawn.

Assays:
[1] = test system: methicillin-sensitive Staphylococcus aureus; assay: MIC by broth micro-dilution (CLSI), methicillin-sensitive S. aureus; type: cell-based; settings: Staphylococcus aureus, ATCC 29213 / MSSA, MSSA S. aureus ATCC29213; read-out: MIC
[2] = test system: carbapenem sensitive Escherichia coli; assay: MIC by broth micro-dilution (CLSI), carbapenem sensitive E. coli; type: cell-based; settings: Escherichia coli, ATCC25922, ESBL −ve E. coli ATCC25922; read-out: MIC
[3] = test system: extended spectrum β lactamase (ESBL) SHV18 producing Klebsiella pneumoniae; assay: MIC by broth micro-dilution (CLSI), ESBL SHV18 producing K. pneumoniae; type: cell-based; settings: Klebsiella pneumoniae, ATCC700603, 22 h, ESBL +ve (SHV-18) K. pneumoniae ATCC700603; read-out: MIC
[4] = test system: carbapenemase producing K. pneumoniae; assay: MIC by broth micro-dilution (CLSI), carbapenemase producing K. pneumoniae; type: cell-based, Klebsiella pneumoniae; settings: Klebsiella pneumoniae, ATCCBAA1705, KPC-2 K. pneumoniae ATCC BAA-1705; read-out: MIC
[5] = test system: carbapenem sensitive Pseudomonas aeruginosa; assay: MIC by broth micro-dilution (CLSI), carbapenem sensitive P. aeruginosa; type: cell-based; settings: Pseudomonas aeruginosa, ATCC27853, Meropenem susceptible P. aeruginosa ATCC27853; read-out: MIC

Row | SMILES | MIC [1] [µg/mL] | MIC [2] [µg/mL] | MIC [3] [µg/mL] | MIC [4] [µg/mL] | MIC [5] [µg/mL]
1 | CCOC(=O)CN[C@H](C)[C@H]1C(=O)N2C(C(=O)O)=C(S[C@@H]3CN[C@H](C(=O)N(C)C)C3)[C@H](C)[C@H]12 [Example 98] | 32 (≈ 68.3 µM) | 8 (≈ 17.1 µM) | 32 (≈ 68.3 µM) | 32 (≈ 68.3 µM) | > 128
2 | C[C@@H](NCC(=O)O)[C@H]1C(=O)N2C(C(=O)O)=C(S[C@@H]3CN[C@H](C(=O)N(C)C)C3)[C@H](C)[C@H]12 [Example 99] | 128 (≈ 291 µM) | 64 (≈ 145 µM) | 16 (≈ 36.3 µM) | 64 (≈ 145 µM) | 16 (≈ 36.3 µM)
3 | C[C@@H](NC(=O)CN(C)C)[C@H]1C(=O)N2C(C(=O)O)=C(S[C@@H]3CN[C@H](C(=O)N(C)C)C3)[C@H](C)[C@H]12 [Example 100] | 16 (≈ 34.2 µM) | 1 (≈ 2.14 µM) | 8 (≈ 17.1 µM) | 4 (≈ 8.55 µM) | 32 (≈ 68.4 µM)
4 | CNC(=O)[C@@H]1C[C@H](SC2=C(C(=O)O)N3C(=O)[C@H]([C@@H](C)NC(=O)C(F)F)[C@H]3[C@H]2C)CN1 [Example 101] | 2 (≈ 4.48 µM) | 0.5 (≈ 1.12 µM) | 1 (≈ 2.24 µM) | 4 (≈ 8.96 µM) | 64 (≈ 143 µM)
5 | C[C@@H](NC(=O)C(F)F)[C@H]1C(=O)N2C(C(=O)O)=C(S[C@@H]3CN[C@H](C(=O)NCCN(C)C)C3)[C@H](C)[C@H]12 [Example 102] | 2 (≈ 3.97 µM) | 2 (≈ 3.97 µM) | 8 (≈ 15.9 µM) | 8 (≈ 15.9 µM) | 64 (≈ 127 µM)
6 | C[C@@H](NC(=O)C(F)F)[C@H]1C(=O)N2C(C(=O)O)=C(S[C@@H]3CN[C@H](C(=O)N4CC[C@H](N)C4)C3)[C@H](C)[C@H]12 [Example 103] | 0.5 (≈ 0.997 µM) | 0.5 (≈ 0.997 µM) | 4 (≈ 7.98 µM) | 8 (≈ 16 µM) | 8 (≈ 16 µM)
7 | C[C@@H](NC(=O)C(F)F)[C@H]1C(=O)N2C(C(=O)O)=C(S[C@@H]3CN[C@H](C(=O)NCCO)C3)[C@H](C)[C@H]12 [Example 104] | 4 (≈ 8.39 µM) | 0.5 (≈ 1.05 µM) | 1 (≈ 2.1 µM) | 4 (≈ 8.39 µM) | 128 (≈ 269 µM)
8 | CN[C@H]1CCN(C(=O)[C@@H]2C[C@H](SC3=C(C(=O)O)N4C(=O)[C@H]([C@@H](C)NC(=O)C(F)F)[C@H]4[C@H]3C)CN2)C1 [Example 106] | 4 (≈ 7.76 µM) | 1 (≈ 1.94 µM) | 4 (≈ 7.76 µM) | 4 (≈ 7.76 µM) | 4 (≈ 7.76 µM)
9 | C[C@@H](NC(=O)C(F)F)[C@H]1C(=O)N2C(C(=O)O)=C(S[C@@H]3CN[C@H](C(=O)N4CC[C@H](N(C)C)C4)C3)[C@H](C)[C@H]12 [Example 107] | 4 (≈ 7.55 µM) | 1 (≈ 1.89 µM) | 4 (≈ 7.55 µM) | 4 (≈ 7.55 µM) | 16 (≈ 30.2 µM)
10 | C[C@@H](NC(=O)C(F)F)[C@H]1C(=O)N2C(C(=O)O)=C(S[C@H]3C[C@@H](C(=O)N(C)C)N(C=N)C3)[C@H](C)[C@H]12 [Example 108] | 2 (≈ 4.1 µM) | 1 (≈ 2.05 µM) | 4 (≈ 8.2 µM) | 16 (≈ 32.8 µM) | 128 (≈ 263 µM)
11 | CCOC(=O)C(=O)N[C@H](C)[C@H]1C(=O)N2C(C(=O)O)=C(S[C@@H]3CN[C@H](C(=O)N4CC[C@H](N)C4)C3)[C@H](C)[C@H]12 [Example 109] | 8 (≈ 15.3 µM) | 4 (≈ 7.64 µM) | 4 (≈ 7.64 µM) | 16 (≈ 30.6 µM) | 4 (≈ 7.64 µM)
12 | C[C@@H](NC(=O)C(F)F)[C@H]1C(=O)N2C(C(=O)O)=C(S[C@@H]3CN[C@H](C(=O)N4CC[C@H](NS(C)(=O)=O)C4)C3)[C@H](C)[C@H]12 [Example 110] | 4 (≈ 6.9 µM) | 0.5 (≈ 0.863 µM) | 2 (≈ 3.45 µM) | 4 (≈ 6.9 µM) | 32 (≈ 55.2 µM)
13 | C[C@@H](NC(=O)C(F)F)[C@H]1C(=O)N2C(C(=O)O)=C(S[C@@H]3CN[C@H](C(=O)NCCC(=O)NOCc4ccccc4)C3)[C@H](C)[C@H]12 [Example 111] | 4 (≈ 6.56 µM) | 1 (≈ 1.64 µM) | 16 (≈ 26.2 µM) | 16 (≈ 26.2 µM) | > 128
14 | CNCC(=O)N[C@H](C)[C@H]1C(=O)N2C(C(=O)O)=C(S[C@@H]3CN[C@H](C(=O)N(C)C)C3)[C@H](C)[C@H]12 [Example 112] | 64 (≈ 141 µM) | 2 (≈ 4.41 µM) | 4 (≈ 8.82 µM) | 4 (≈ 8.82 µM) | 8 (≈ 17.6 µM)
15 | CC(C)C[C@@H](N)C(=O)N[C@H](C)[C@H]1C(=O)N2C(C(=O)O)=C(S[C@@H]3CN[C@H](C(=O)N(C)C)C3)[C@H](C)[C@H]12 [Example 113] | 16 (≈ 32.3 µM) | 4 (≈ 8.07 µM) | 32 (≈ 64.6 µM) | 16 (≈ 32.3 µM) | > 128
16 | CONC(=O)CCNC(=O)[C@@H]1C[C@H](SC2=C(C(=O)O)N3C(=O)[C@H]([C@@H](C)NC(=O)C(F)F)[C@H]3[C@H]2C)CN1 [Example 115] | 8 (≈ 15 µM) | 0.5 (≈ 0.937 µM) | 2 (≈ 3.75 µM) | 8 (≈ 15 µM) | > 128

Row | SMILES | MIC [1] [µg/mL] | MIC [2] [µg/mL] | MIC [3] [µg/mL] | MIC [4] [µg/mL] | MIC [5] [µg/mL]
17 | C[C@@H](NC(=O)C(F)F)[C@H]1C(=O)N2C(C(=O)O)=C(S[C@@H]3CN[C@H](C(=O)NCCC(=O)NCCO)C3)[C@H](C)[C@H]12 [Example 116] | 8 (≈ 14.6 µM) | 0.5 (≈ 0.913 µM) | 2 (≈ 3.65 µM) | 4 (≈ 7.3 µM) | > 128
18 | C[C@@H](NC(=O)C(F)F)[C@H]1C(=O)N2C(C(=O)O)=C(S[C@@H]3CN[C@H](C(=O)N4CC[C@H](NS(=O)(=O)N(C)C)C4)C3)[C@H](C)[C@H]12 [Example 117] | 2 (≈ 3.29 µM) | 0.5 (≈ 0.821 µM) | 2 (≈ 3.29 µM) | 4 (≈ 6.57 µM) | > 128
19 | C[C@@H](NC(=O)C(F)F)[C@H]1C(=O)N2C(C(=O)O)=C(S[C@@H]3CN[C@H](C(=O)N4CC[C@H](NC(=O)N(C)C)C4)C3)[C@H](C)[C@H]12 [Example 118] | 4 (≈ 6.99 µM) | 0.5 (≈ 0.873 µM) | 2 (≈ 3.49 µM) | 8 (≈ 14 µM) | 64 (≈ 112 µM)
20 | C[C@@H](NC(=O)C(F)F)[C@H]1C(=O)N2C(C(=O)O)=C(S[C@@H]3CN[C@H](C(=O)N4CC[C@H](NC(=O)CC#N)C4)C3)[C@H](C)[C@H]12 [Example 119] | 2 (≈ 3.52 µM) | 0.5 (≈ 0.879 µM) | 1 (≈ 1.76 µM) | 8 (≈ 14.1 µM) | 16 (≈ 28.1 µM)
21 | C[C@@H](NC(=O)C(F)F)[C@H]1C(=O)N2C(C(=O)O)=C(S[C@@H]3CN[C@H](C(=O)N4CCNCC4)C3)[C@H](C)[C@H]12 [Example 120] | 2 (≈ 3.99 µM) | 0.5 (≈ 0.997 µM) | 4 (≈ 7.98 µM) | 4 (≈ 7.98 µM) | 4 (≈ 7.98 µM)
22 | C[C@@H](NC(=O)C(F)F)[C@H]1C(=O)N2C(C(=O)O)=C(S[C@@H]3CN[C@H](C(=O)N4CC[C@H](NC(=O)CN)C4)C3)[C@H](C)[C@H]12 [Example 121] | 1 (≈ 1.79 µM) | 0.5 (≈ 0.895 µM) | 4 (≈ 7.16 µM) | 4 (≈ 7.16 µM) | 8 (≈ 14.3 µM)
23 | C[C@@H](NC(=O)C(F)F)[C@H]1C(=O)N2C(C(=O)O)=C(S[C@@H]3CN[C@H](C(=O)N4CCC[C@H](N)C4)C3)[C@H](C)[C@H]12 [Example 122] | 1 (≈ 1.94 µM) | 1 (≈ 1.94 µM) | 4 (≈ 7.76 µM) | 4 (≈ 7.76 µM) | 16 (≈ 31 µM)
24 | COC(=O)N[C@H]1CCN(C(=O)[C@@H]2C[C@H](SC3=C(C(=O)O)N4C(=O)[C@H]([C@@H](C)NC(=O)C(F)F)[C@H]4[C@H]3C)CN2)C1 [Example 123] | 2 (≈ 3.57 µM) | 0.5 (≈ 0.894 µM) | 2 (≈ 3.57 µM) | 4 (≈ 7.15 µM) | 64 (≈ 114 µM)
25 | C[C@@H](NC(=O)C(F)F)[C@H]1C(=O)N2C(C(=O)O)=C(S[C@@H]3CN[C@H](C(=O)N4CC[C@@H](N)C4)C3)[C@H](C)[C@H]12 [Example 124] | 2 (≈ 3.99 µM) | 1 (≈ 1.99 µM) | 4 (≈ 7.98 µM) | 4 (≈ 7.98 µM) | 4 (≈ 7.98 µM)
26 | C[C@@H](NC(=O)C(F)F)[C@H]1C(=O)N2C(C(=O)O)=C(S[C@@H]3CN[C@H](C(=O)N4CCO[C@H](CN)C4)C3)[C@H](C)[C@H]12 [Example 126] | 2 (≈ 3.76 µM) | 2 (≈ 3.76 µM) | 8 (≈ 15 µM) | 8 (≈ 15 µM) | 16 (≈ 30.1 µM)
27 | C[C@@H](NC(=O)C(F)F)[C@H]1C(=O)N2C(C(=O)O)=C(SC3CN[C@H](C(=O)N4CCO[C@@H](CN)C4)C3)[C@H](C)[C@H]12 (stereo partly shown) [Example 127] | 2 (≈ 3.76 µM) | 2 (≈ 3.76 µM) | 8 (≈ 15 µM) | 16 (≈ 30.1 µM) | 32 (≈ 60.2 µM)
28 | C[C@@H](NC(=O)CC#N)[C@H]1C(=O)N2C(C(=O)O)=C(S[C@@H]3CN[C@H](C(=O)N(C)C)C3)[C@H](C)[C@H]12 [Example 128] | 16 (≈ 35.6 µM) | 4 (≈ 8.9 µM) | 8 (≈ 17.8 µM) | 8 (≈ 17.8 µM) | 64 (≈ 142 µM)
29 | CNCC(=O)N[C@H](C)[C@H]1C(=O)N2C(C(=O)O)=C(S[C@@H]3CN[C@H](C(=O)N4CC[C@H](N)C4)C3)[C@H](C)[C@H]12 [Example 129] | 32 (≈ 64.7 µM) | 4 (≈ 8.09 µM) | 32 (≈ 64.7 µM) | 8 (≈ 16.2 µM) | 8 (≈ 16.2 µM)
30 | C[C@@H](NC(=O)C(F)F)[C@H]1C(=O)N2C(C(=O)O)=C(S[C@@H]3CN[C@H](C(=O)N[C@@H]4CCNC4)C3)[C@H](C)[C@H]12 [Example 130] | 2 (≈ 3.99 µM) | 1 (≈ 1.99 µM) | 8 (≈ 16 µM) | 4 (≈ 7.98 µM) | 32 (≈ 63.8 µM)
31 | C[C@@H](NC(=O)C(F)F)[C@H]1C(=O)N2C(C(=O)O)=C(S[C@@H]3CN[C@H](C(=O)N4CC(N)C4)C3)[C@H](C)[C@H]12 [Example 131] | 4 (≈ 8.2 µM) | 0.5 (≈ 1.03 µM) | 2 (≈ 4.1 µM) | 8 (≈ 16.4 µM) | 16 (≈ 32.8 µM)
32 | C[C@@H](NC(=O)C(F)F)[C@H]1C(=O)N2C(C(=O)O)=C(S[C@@H]3CN[C@H](C(=O)N4CCC(N)CC4)C3)[C@H](C)[C@H]12 [Example 132] | 2 (≈ 3.88 µM) | 1 (≈ 1.94 µM) | 4 (≈ 7.76 µM) | 4 (≈ 7.76 µM) | 4 (≈ 7.76 µM)
